Laboratory results as given in patent US11919856B2, “Compounds” (UCL BUSINESS LTD, priority 2018, dated 2024).
“Also recorded” adds a separate entry of the source.

What was measured:
[1] = target: T1, Z α1-antitrypsin (Homo sapiens, UniProt P01009, E366K/V237A); test: Stoichiometry of inhibition against chymotrypsin, Z α1-antitrypsin; assay type: biochemical; details: Z α1-antitrypsin pre-incubated with compound
Protocol: Mutations that interfere with the opening of […] or that perturb its interaction with the N-terminal portion of the reactive centre loop alter the ability of serpins to inhibit target proteases. The stoichiometry of inhibition (SI) was determined for M and Z α1-antitrypsin in discontinuous experiments against a model target protease, chymotrypsin. The pre-incubation of both variants with Compound 1 led to a >98% loss of protease inhibitory activity. […] To investigate whether this activity was consistent with action as a chemical chaperone, M and Z α1-antitrypsin were unfolded in vitro into 6 M guanidine hydrochloride, and rapidly refolded by snap dilution into denaturant-free buffer in the presence or absence of Compound 1.

[2] = Total and free drug in blood and liver of Z α1-antitrypsin transgenic mice; assay type: in vivo, mouse; details: for systemic free drug levels relative to in vitro secretion potency: duration of the dosing period
Protocol: (§1) To explore the PK-PD relationship of Compound 1, Z α1-antitrypsin transgenic animals were dosed with 100, 30 or 10 mg/kg Compound 1 three times a day and on day 6 blood and liver were harvested at 3 hr (˜Cmax) and 8 hr (Cmin) after the dose for the measurement of total and free drug in both tissues. Blood was also harvested for the measurement of monomeric Z α1-antitrypsin in plasma. Total concentrations of Compound 1 were determined by specific LC-MS/MS assay and the free unbound drug in both tissues was determined using equilibrium dialysis and used to derive unbound concentrations.

[3] = Blood exposure after single PO administration in male CD-1 mouse; assay type: in vivo
Description: Compound 1 had in vitro ADME properties suitable for in vivo evaluation of the pre-clinical and clinical pharmacology of the molecule.

[4] = Permeability; assay type: in vitro ADME
[5] = target: T1, Z α1-antitrypsin; test: Circulating monomeric Z α1-antitrypsin in plasma of Z α1-antitrypsin transgenic mice; assay type: in vivo; parameters: a random insertion of the human Z α1-antitrypsin gene; from tissue; host or cells: liver and plasma of Z α1-antitrypsin transgenic mice (human Z transgene)
Protocol: In order to investigate the therapeutic potential of Compound 1 in Z α1-antitrypsin deficiency, the compound was tested in a transgenic mouse model engineered with a random insertion of the human Z α1-antitrypsin gene (Teckman et al. Am J Physiol Gastrointest Liver Physiol. 2004; 286:G851-G62). To determine a suitable dose regimen for Compound 1 in these studies the total and unbound exposure in transgenic mice was estimated in an in silico model.
as §1
Recent work has shown that a significant fraction of the total Z α1-antitrypsin in the circulation is in the polymeric conformation (Tan et al. Eur Respir J. 2014; 43(5):1501-4). […] Monomeric Z α1-antitrypsin was measured in plasma samples following 6 days of dosing and levels were normalised to each animals' pre-dose control levels to account for the natural variation of Z α1-antitrypsin between animals. […]
Since Compound 1 blocks polymer formation in cells the effect of dosing Compound 1 on liver polymer levels was explored. […] On days 15 and 21 of dosing, changes of monomeric Z α1-antitrypsin plasma samples were determined as above, and increases of 7- to 8-fold over the pre-dosing baseline levels were observed, similar to the effect in animals dosed for 3 or 6 days, consistent with sustained target engagement through the dosing period. […] There was no difference observed in total liver polymer load via manual or quantitative scoring.

[6] = In vitro clearance in cryopreserved hepatocytes, dog; assay type: in vitro ADME
[7] = test system: Z α1-antitrypsin polymer; test: Liver polymer levels in Z α1-antitrypsin transgenic mice (2C1 staining); assay type: in vivo, human; details: 100 mg/kg three times a day for 20 days
Protocol: Since Compound 1 blocks polymer formation in cells the effect of dosing Compound 1 on liver polymer levels was explored. It has recently been shown that Z α1-antitrypsin polymers formed in CHO-TET-ON-Z-A1AT and ZZ-iPSC-hepatocytes are cleared from cells with a t½ of between 8 and 48 hours depending on whether they partition to the soluble or insoluble fractions. […] Compound 1 was therefore dosed at 100 mg/kg three times a day as above for 20 days. On days 15 and 21 of dosing, changes of monomeric Z α1-antitrypsin plasma samples were determined as above, and increases of 7- to 8-fold over the pre-dosing baseline levels were observed, similar to the effect in animals dosed for 3 or 6 days, consistent with sustained target engagement through the dosing period. Liver polymer levels were investigated by staining with 2C1 anti-polymer monoclonal antibody and were scored blinded either by a pathologist or by quantification using an algorithm to measure all areas of positive staining. There was no difference observed in total liver polymer load via manual or quantitative scoring.
To investigate whether there is a subpopulation of polymer in the liver that was responding to compound over the time frame of the experiment, areas of staining were divided into low, medium and high intensity regions and scored separately for response to compound. […]

T1 sequence (P01009 25-418 V237A/E366K): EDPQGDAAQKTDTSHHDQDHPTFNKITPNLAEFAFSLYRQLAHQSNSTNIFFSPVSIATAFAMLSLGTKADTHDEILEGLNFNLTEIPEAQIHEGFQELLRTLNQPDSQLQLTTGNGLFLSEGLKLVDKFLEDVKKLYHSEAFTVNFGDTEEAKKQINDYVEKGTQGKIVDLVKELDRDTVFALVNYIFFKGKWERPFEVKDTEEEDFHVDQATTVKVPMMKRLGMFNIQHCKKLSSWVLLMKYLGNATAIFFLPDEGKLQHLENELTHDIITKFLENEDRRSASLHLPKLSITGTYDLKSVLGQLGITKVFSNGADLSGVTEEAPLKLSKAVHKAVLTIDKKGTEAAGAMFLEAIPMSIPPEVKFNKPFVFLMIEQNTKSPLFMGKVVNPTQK

**Q.** For CCC[C@@H](NC(=O)c1cccc2c1CC(=O)N2)[C@@H](O)c1cccc(F)c1C [Compound 1, N-[(1S,2R)-1-(3-fluoro-2-methylphenyl)-1-hydroxypentan-2-yl]-2-oxo-2,3-dihydro-1H-indole-4-carboxamide], which “loss of protease inhibitory activity” value [1] is on record?
**A.** > 98%

**Q.** And the “systemic free drug levels relative to in vitro secretion potency” value ([2]; 10 mg/kg)?
**A.** EC10-EC20

**Q.** What about the “free drug levels in blood” value ([2]; 30 mg/kg and 10 mg/kg three times a day, large part of the dosing period) of the same molecule?
**A.** significantly below the cellular EC50 concentrations

**Q.** And the “systemic free drug levels relative to in vitro secretion potency” value ([2]; 30 mg/kg)?
**A.** EC20-EC30

**Q.** And the concentration at 8 h ([2]; Z α1-antitrypsin transgenic, mouse, blood, oral, 100 mg/kg three times a day, day 6, majority of the dosing period, read-out: Cmin levels of the free drug concentration in blood)?
**A.** ≥ 300 nM

**Q.** What about the “free and total drug concentrations in the liver” value ([2]; transgenic mice, day 6) of the same molecule?
**A.** equivalent to those in blood

**Q.** What about the DNAUCinf ([3]; single PO 10 mg/kg) of the same molecule?
**A.** 202±101

**Q.** And the “mean dose-normalised Cmax” value ([3]; single PO 10 mg/kg)?
**A.** 58±112

**Q.** And the DNAUCinf ([3]; single PO 30 mg/kg)?
**A.** 294±47

**Q.** What about the “mean dose-normalised Cmax” value ([3]; single PO 30 mg/kg) of the same molecule?
**A.** 113±27

**Q.** And the DNAUCinf ([3]; single PO 100 mg/kg)?
**A.** 403±246

**Q.** What about the “mean dose-normalised Cmax” value ([3]; single PO 100 mg/kg) of the same molecule?
**A.** 113±27

**Q.** What about the Permeability [4] of the same molecule?
**A.** high

**Q.** What about the “increase in circulating Z α1-antitrypsin” value ([5]; 30 mg/kg and 10 mg/kg three times a day, 6 days) of the same molecule?
**A.** significant, dose-dependent increases

**Q.** And the “increase of plasma concentrations of the serpin” value ([5]; transgenic mouse model)?
**A.** up to 8 fold

**Q.** And the “increase in circulating levels of Z α1-antitrypsin” value ([5]; within 3 days of dosing, maintained throughout the experiment)?
**A.** 7 fold

**Q.** And the “in vitro clearance in cryopreserved hepatocytes” value [6]?
**A.** < 0.65 mL/min/g

**Q.** And the “liver polymer staining in low, medium and high intensity regions” value [7]?
**A.** No effect

**Q.** And the “total liver polymer load” value ([7]; manual or quantitative scoring)?
**A.** no difference; also recorded: no reduction
